Measured values taken from patent US10111876B2, “ALK Kinase Inhibitor and its use” (Macau University of Science and Technology, priority 2016, dated 2018).

Legend:
[1] = target: recombinant ALK kinase domain (Homo sapiens, UniProt Q9UM73); assay: LanthaScreen Eu Kinase Binding Assay, recombinant ALK kinase domain; conditions: room temperature, 1 h
Method: Enzymatic assay for recombinant ALK kinase domain was conducted using the LanthaScreen® Eu Kinase Binding Assays. LanthaScreen® Eu Kinase Binding Assays are based on the binding and displacement of a proprietary. The assay was performed at room temperature for 1 h in a total volume of 15 μL, including 5 μL of test compound, 5 μL of kinase/antibody mixture and 5 μL of tracer. After 1 h incubation, fluorescence was measured. The division of acceptor/tracer emission (665 nm) by the antibody/donor emission (615 nm) was used to calculate the emission ratio.

[2] = tested on: normal lung cells CCD19; assay: MTT cell viability assay, normal lung cells CCD19; type: cell-based; conditions: 72 h treatment
Method: (§1) H2228 and CCD19(Lu) cells were obtained from the American Type Culture Collection and cultured in an environment of 5% CO2 at 37° C. in RPMI-1640 mediums supplemented with 10% fetal bovine serum (FBS), 100 units/mL penicillin, and 100 μg/mL streptomycin.
(§2) Cell viability was determined by MTT assay. H2228 and CCD19 cells (3×10^3 cells/well) were seeded into a 96-well plate and treated with indicated concentrations of the compound of Formula (V) for 72 h. At the end of incubation, 10 μl MTT (0.5 mg/ml) (Sigma) was added to each well. After incubating for 4 h at 37° C., supernatants were removed and 150 μl of DMSO was added. The formazan crystals formed inside the viable cells were solubilized in DMSO and the OD was read with Microplate Reader (Epoch, Winooski, USA) at 570 nm. The IC50 value for the compound was determined by GraphPad Prim5.0 software. The experiments were performed three times with three replicates in each.

[3] = tested on: H2228 cells; assay: MTT cell viability assay, H2228 cells; type: cell-based; conditions: Homo sapiens, NCI-H2228, 72 h treatment
Method: as §1, §2

Chain of recombinant ALK kinase domain (Q9UM73 1116-1392 limits assumed): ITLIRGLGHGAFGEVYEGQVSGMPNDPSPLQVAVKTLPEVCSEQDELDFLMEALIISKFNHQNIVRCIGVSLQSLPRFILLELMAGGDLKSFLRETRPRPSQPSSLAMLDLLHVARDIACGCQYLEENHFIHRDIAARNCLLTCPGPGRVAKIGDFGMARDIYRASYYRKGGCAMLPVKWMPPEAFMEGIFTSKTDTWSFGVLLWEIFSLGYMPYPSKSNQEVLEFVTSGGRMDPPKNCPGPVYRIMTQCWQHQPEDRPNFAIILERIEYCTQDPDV

EC50 [1]: 0.0196 µM
IC50 [3]: 4.11 ± 0.96 µM
SMILES: Cc1sc2nc3c4ccccc4c(NCCCN(C)C)nn3c(=O)c2c1C [Formula (V)]
IC50 [2]: 16.8 ± 2.04 µM
